Results on ten compounds are retold here after PubChem BioAssay (NCI).

The structures appear in SMILES notation.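 Growth conditions: 96-well plates. Treatment: test compound, 48 hours, 5 concentrations. Analysis: linear interpolation between bracketing concentrations; unreached endpoints set to highest concentration. GI50 marks 50% less growth. TGI denotes the concentration required for complete inhibition of growth.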

Test systems include U251 CNS; TK-10 renal; CAKI-1 renal; BT-549 breast; HS 578T breast; COLO 205 colon; KM12 colon; MCF7 breast; HCC-2998 colon; CCRF-CEM leukemia.
Experiment in all cases: DTP human tumour cell line panel, 48 h

Broadly, the GI50 is the concentration that inhibits growth by half. By TGI is commonly meant the concentration giving total growth inhibition. Lower therefore signals more potent growth arrest.

In the case of `COc1ccc2c(c1)[n+](=O)c(C(=O)c1ccco1)c(C(F)(F)F)n2[O-]`, the GI50 in the assay on U251 CNS was 2.04 µM; with TK-10 renal, 8.56 µM; with CAKI-1 renal it was 0.642 µM; with BT-549 breast, 2.64 µM; with HS 578T breast, 3.08 µM; with COLO 205 colon, 3.55 µM. Further, the GI50 in the assay with KM12 colon is 4.48 µM; in the assay with MCF7 breast, 3.82 µM. The TGI with U251 CNS is 8.67 µM; in the assay with TK-10 renal, 60.4 µM; in the assay on CAKI-1 renal, 4.54 µM; with BT-549 breast, 18.9 µM; in the assay on HS 578T breast it was 8.86 µM; in the assay with COLO 205 colon it was 18.7 µM. Further, the total growth inhibition concentration (TGI) in the assay with KM12 colon was 32.6 µM; in the assay on MCF7 breast, greater than 100 µM.
Consider `CN(C)c1ccc(N=C2C=CC(=[N+](C)C)C=C2)cc1`, for which the GI50 was 3.65 µM in the assay on U251 CNS; 9.24 µM in the assay with TK-10 renal; 12.1 µM in the assay on CAKI-1 renal; 4.15 µM in the assay with BT-549 breast; 9.03 µM with HCC-2998 colon; 3.28 µM with HS 578T breast. In addition, the GI50 in the assay with COLO 205 colon was 4.2 µM; with KM12 colon, 3.91 µM; in the assay on MCF7 breast, 4.03 µM. Further, the TGI was 15.4 µM in the assay on U251 CNS; 53.4 µM in the assay with TK-10 renal; 41.8 µM with CAKI-1 renal; 58.4 µM with BT-549 breast; 65.8 µM in the assay with HCC-2998 colon; 29.1 µM with HS 578T breast. Besides, the TGI with COLO 205 colon is 16.2 µM; in the assay with KM12 colon it was 15 µM; in the assay on MCF7 breast it was 17.6 µM.
Turning to `CCCCCCCCN(CCCCCCCC)CCCCCCNc1cc(OC)cc2cccnc12`, the GI50 in the assay with U251 CNS is 11.9 µM; in the assay on TK-10 renal, 20.3 µM; with CCRF-CEM leukemia, 11.4 µM; in the assay on CAKI-1 renal, 12.1 µM; in the assay on BT-549 breast, 14.7 µM; in the assay on HCC-2998 colon it was 13.1 µM. Besides, the GI50 in the assay with HS 578T breast was 11 µM; with KM12 colon, 6.81 µM; in the assay on MCF7 breast, 3.33 µM. Further, the TGI in the assay with U251 CNS is 27 µM; in the assay with TK-10 renal it was 36 µM; in the assay on CCRF-CEM leukemia, greater than 100 µM; in the assay on CAKI-1 renal it was 32.5 µM; in the assay with BT-549 breast, 28 µM; in the assay on HCC-2998 colon it was 26.2 µM. For the same compound, the total growth inhibition concentration (TGI) turned out to be 29.7 µM in the assay on HS 578T breast, 20 µM with KM12 colon and 12.4 µM in the assay with MCF7 breast.
Turning to `COC(=O)C(=O)C(C(=O)C(=O)Nc1nc2ccc(C)cc2s1)c1nc2ccc([N+](=O)[O-])cc2[nH]c1=O` (stereo not drawn), the concentration for total growth inhibition (TGI) with U251 CNS, in the assay on TK-10 renal, in the assay on CCRF-CEM leukemia, in the assay on CAKI-1 renal, in the assay on BT-549 breast and in the assay on HCC-2998 colon was greater than 100 µM in each case. For the same compound, the TGI in the assay with HS 578T breast, with KM12 colon and with MCF7 breast was greater than 100 µM each time.
In the case of `Cc1ccc(-c2cc3c(SCC(=O)Nc4cc(C(F)(F)F)ccc4Cl)nccn3n2)cc1`, the GI50 in the assay on U251 CNS is 3.4 µM; in the assay on TK-10 renal it was greater than 100 µM; with CAKI-1 renal, greater than 100 µM; with BT-549 breast it was greater than 100 µM; in the assay with HCC-2998 colon, greater than 100 µM; in the assay with HS 578T breast it was 11.7 µM. Also, the GI50 in the assay on COLO 205 colon, with KM12 colon and in the assay on MCF7 breast was greater than 100 µM each time. Further, the total growth inhibition concentration (TGI) with U251 CNS, with TK-10 renal, with CAKI-1 renal, with BT-549 breast, in the assay with HCC-2998 colon and with HS 578T breast was greater than 100 µM each time. Moreover, the TGI with COLO 205 colon, with KM12 colon and in the assay on MCF7 breast was greater than 100 µM in each case.
For `CCN(CC)CCOc1ccccc1/C=C/c1noc2ccccc12`, the total growth inhibition concentration (TGI) was found to be 28.7 µM in the assay on TK-10 renal; 81.6 µM with CCRF-CEM leukemia; 26.2 µM in the assay on CAKI-1 renal; 29.9 µM in the assay with BT-549 breast; 18 µM with HCC-2998 colon; 32.3 µM in the assay with HS 578T breast. Besides, the total growth inhibition concentration (TGI) with COLO 205 colon is 24.1 µM; with KM12 colon it was 31.5 µM; in the assay with MCF7 breast it was 27.9 µM.
Consider `O=C(/C(=C\c1ccc([N+](=O)[O-])cc1)S(=O)Cc1ccc(F)cc1)c1ccc(F)cc1` (stereo not drawn), for which the GI50 is 1.72 µM in the assay on U251 CNS; 2.31 µM in the assay with TK-10 renal; 1.48 µM in the assay with CCRF-CEM leukemia; 2.07 µM in the assay with CAKI-1 renal; 1.96 µM in the assay with BT-549 breast; 1.69 µM in the assay with HCC-2998 colon. The GI50 was 3.3 µM with HS 578T breast, 1.91 µM with COLO 205 colon and 2.22 µM in the assay on KM12 colon. Besides, the TGI in the assay on U251 CNS was determined as 3.44 µM; in the assay on TK-10 renal it was 7 µM; in the assay on CCRF-CEM leukemia, 6.75 µM; in the assay on CAKI-1 renal, 5.54 µM; in the assay with BT-549 breast, 3.88 µM; in the assay on HCC-2998 colon, 3.22 µM. In addition, the values for the TGI in the assay on HS 578T breast, in the assay with COLO 205 colon and with KM12 colon were 75 µM, 3.63 µM and 5.46 µM, respectively.
In the case of `N/N=C(\C(=O)Nc1ccc(Cl)cc1Cl)C(c1cnc2ccccc2n1)[N+](=O)[O-]` (stereo not drawn), the TGI in the assay with U251 CNS, in the assay on TK-10 renal, with CCRF-CEM leukemia, in the assay on CAKI-1 renal, with BT-549 breast and in the assay on HCC-2998 colon was greater than 100 µM in each case. Further, the concentration for total growth inhibition (TGI) in the assay with HS 578T breast, in the assay with KM12 colon and in the assay with MCF7 breast was greater than 100 µM in each case.
For the compound `O=CNc1ncn[nH]1`, the TGI with U251 CNS, with TK-10 renal, in the assay on CCRF-CEM leukemia, with CAKI-1 renal, in the assay on BT-549 breast and in the assay with HS 578T breast was greater than 100 µM throughout. In addition, the concentration for total growth inhibition (TGI) with COLO 205 colon, in the assay on KM12 colon and with MCF7 breast was greater than 100 µM throughout.
Consider `CNC(=O)OCc1c2ccncc2c(C)c2c1[nH]c1ccccc12`, for which the concentration for total growth inhibition (TGI) in the assay with U251 CNS is 1.8 µM; in the assay with TK-10 renal, 0.968 µM; in the assay with CAKI-1 renal it was 1.25 µM; in the assay on BT-549 breast it was 1.63 µM; in the assay with HCC-2998 colon, 1.08 µM; with HS 578T breast it was 3.12 µM. Further, the TGI in the assay with COLO 205 colon came out at 1.82 µM; in the assay on KM12 colon it was 5.19 µM; in the assay with MCF7 breast, 1.24 µM.
